Reference: the NIST ThermoML archive (doi:10.1016/j.jct.2011.01.008)

What was measured:
[1] = refractive index (Na D-line) (dimensionless); xn = mol fraction of the nth substance listed; conditions: 298.15 K, 96 kPa, Liquid, Standard Abbe refractometry
[2] = xn = mol fraction of the nth substance listed; conditions: 96 kPa, Liquid, Vibrating tube method

CCC=O [propanal] + CCOS(=O)(=O)[O-].CCn1cc[n+](C)c1
[1]
Conditions	refractive index
x1 = 0.077	1.4789
x1 = 0.1702	1.4768
x1 = 0.2146	1.473
x1 = 0.3671	1.4641
x1 = 0.4184	1.4627
x1 = 0.5246	1.4532
x1 = 0.616	1.4467
x1 = 0.7074	1.4369
x1 = 0.8104	1.426
x1 = 0.9022	1.41
x1 = 0.9521	1.3854
x1 = 1	1.3648

[2]
Conditions	mass density [kg/m3]
288.14 K, x1 = 0.1702	1215.95
288.14 K, x1 = 0.4184	1170.49
288.14 K, x1 = 1	807.26
288.15 K, x1 = 0.2146	1209
288.15 K, x1 = 0.3671	1182.78
288.15 K, x1 = 0.5246	1139.5
288.15 K, x1 = 0.616	1108.79
288.15 K, x1 = 0.7074	1069.7
288.15 K, x1 = 0.8104	1012.95
288.15 K, x1 = 0.9022	936.46
288.15 K, x1 = 0.9521	876.3
288.16 K, x1 = 0.077	1227.88
293.15 K, x1 = 0.077	1224.4
293.15 K, x1 = 0.1702	1212.43
293.15 K, x1 = 0.5246	1136.2
293.15 K, x1 = 0.616	1105.04
293.15 K, x1 = 0.7074	1066.43
293.15 K, x1 = 1	801.06
293.16 K, x1 = 0.2146	1205.39
293.16 K, x1 = 0.3671	1178.94
293.16 K, x1 = 0.4184	1166.66
293.16 K, x1 = 0.8104	1008.26
293.16 K, x1 = 0.9022	931.16
293.16 K, x1 = 0.9521	870.71
298.15 K, x1 = 0.1702	1208.92
298.15 K, x1 = 0.5246	1132.3
298.15 K, x1 = 0.616	1101.02
298.15 K, x1 = 1	794.85
298.16 K, x1 = 0.077	1220.94
298.16 K, x1 = 0.2146	1201.81
298.16 K, x1 = 0.3671	1175.21
298.16 K, x1 = 0.4184	1162.88
298.16 K, x1 = 0.7074	1062.18
298.16 K, x1 = 0.8104	1003.73
298.16 K, x1 = 0.9022	925.91
298.16 K, x1 = 0.9521	865.19
303.15 K, x1 = 0.077	1217.48
303.15 K, x1 = 0.5246	1128.46
303.15 K, x1 = 0.7074	1058.06
303.15 K, x1 = 1	788.72
303.16 K, x1 = 0.1702	1205.39
303.16 K, x1 = 0.2146	1198.24
303.16 K, x1 = 0.3671	1171.5
303.16 K, x1 = 0.4184	1159.08
303.16 K, x1 = 0.616	1097.06
303.16 K, x1 = 0.8104	999.38
303.16 K, x1 = 0.9022	920.77
303.16 K, x1 = 0.9521	859.8
308.15 K, x1 = 0.077	1214.04
308.15 K, x1 = 0.2146	1194.69
308.15 K, x1 = 0.3671	1167.83
308.15 K, x1 = 0.4184	1155.38
308.15 K, x1 = 0.8104	995.49
308.15 K, x1 = 0.9022	915.5
308.15 K, x1 = 0.9521	854.41
308.16 K, x1 = 0.1702	1201.91
308.16 K, x1 = 0.5246	1124.75
308.16 K, x1 = 0.616	1093.39
308.16 K, x1 = 0.7074	1054.45
308.16 K, x1 = 1	782.55
313.14 K, x1 = 0.1702	1198.61
313.14 K, x1 = 0.616	1089.32
313.14 K, x1 = 0.7074	1050.7
313.15 K, x1 = 0.077	1210.68
313.15 K, x1 = 0.3671	1164.21
313.15 K, x1 = 0.4184	1151.8
313.15 K, x1 = 0.5246	1121.2
313.15 K, x1 = 0.8104	990.4
313.15 K, x1 = 0.9022	910.11
313.15 K, x1 = 0.9521	848.67
313.15 K, x1 = 1	776.53
313.16 K, x1 = 0.2146	1191.34

CCCCC=O [pentanal] + CCOS(=O)(=O)[O-].CCn1cc[n+](C)c1
[1]
Conditions	refractive index
x1 = 0.0792	1.4793
x1 = 0.101	1.4788
x1 = 0.2039	1.4759
x1 = 0.3008	1.4718
x1 = 0.4074	1.4672
x1 = 0.5048	1.4621
x1 = 0.6047	1.4554
x1 = 0.7012	1.4486
x1 = 0.8024	1.4403
x1 = 0.897	1.431
x1 = 0.9513	1.4231
x1 = 1	1.396

[2]
Conditions	mass density [kg/m3]
288.15 K, x1 = 0.0792	1218.05
288.15 K, x1 = 0.101	1213.67
288.15 K, x1 = 0.3008	1168.57
288.15 K, x1 = 0.4074	1139.93
288.15 K, x1 = 0.6047	1073.97
288.15 K, x1 = 0.7012	1036.82
288.15 K, x1 = 0.897	935.22
288.15 K, x1 = 0.9513	896.87
288.15 K, x1 = 1	814.15
288.16 K, x1 = 0.2039	1191.69
288.16 K, x1 = 0.5048	1109.32
288.16 K, x1 = 0.8024	990.74
293.14 K, x1 = 0.0792	1215
293.14 K, x1 = 1	809.45
293.15 K, x1 = 0.101	1210.75
293.15 K, x1 = 0.2039	1188.69
293.15 K, x1 = 0.3008	1165.47
293.15 K, x1 = 0.4074	1136.9
293.15 K, x1 = 0.5048	1106.25
293.15 K, x1 = 0.6047	1070.53
293.15 K, x1 = 0.7012	1033.26
293.15 K, x1 = 0.8024	986.74
293.15 K, x1 = 0.897	931.08
293.15 K, x1 = 0.9513	892.5
298.14 K, x1 = 0.0792	1211.93
298.14 K, x1 = 0.101	1207.59
298.14 K, x1 = 0.2039	1185.49
298.14 K, x1 = 0.3008	1162.15
298.14 K, x1 = 0.4074	1133.5
298.14 K, x1 = 0.5048	1102.7
298.14 K, x1 = 0.6047	1066.69
298.14 K, x1 = 0.7012	1029.35
298.14 K, x1 = 0.8024	982.52
298.14 K, x1 = 0.897	926.62
298.14 K, x1 = 0.9513	887.82
298.14 K, x1 = 1	804.73
303.14 K, x1 = 0.101	1204.47
303.14 K, x1 = 0.2039	1182.28
303.14 K, x1 = 0.3008	1158.83
303.14 K, x1 = 0.4074	1130.07
303.14 K, x1 = 0.5048	1099.13
303.14 K, x1 = 0.6047	1062.78
303.14 K, x1 = 0.7012	1025.33
303.14 K, x1 = 0.8024	978.11
303.14 K, x1 = 0.897	921.84
303.14 K, x1 = 0.9513	882.85
303.15 K, x1 = 0.0792	1208.72
303.15 K, x1 = 1	799.97
308.14 K, x1 = 0.101	1201.4
308.14 K, x1 = 0.2039	1179.03
308.14 K, x1 = 0.4074	1126.55
308.14 K, x1 = 0.5048	1095.35
308.14 K, x1 = 0.6047	1058.77
308.14 K, x1 = 0.7012	1021.17
308.14 K, x1 = 0.897	916.87
308.14 K, x1 = 0.9513	877.74
308.15 K, x1 = 0.0792	1205.39
308.15 K, x1 = 0.3008	1155.36
308.15 K, x1 = 0.8024	973.48
308.15 K, x1 = 1	795.17
313.14 K, x1 = 0.0792	1201.93
313.14 K, x1 = 0.2039	1175.7
313.14 K, x1 = 0.4074	1122.78
313.14 K, x1 = 0.5048	1091.33
313.14 K, x1 = 0.6047	1054.63
313.14 K, x1 = 0.7012	1016.96
313.14 K, x1 = 0.897	911.86
313.14 K, x1 = 0.9513	872.76
313.14 K, x1 = 1	790.33
313.15 K, x1 = 0.101	1198.11
313.15 K, x1 = 0.3008	1151.83
313.15 K, x1 = 0.8024	966.65
318.14 K, x1 = 0.0792	1198.39
318.14 K, x1 = 0.2039	1172.28
318.14 K, x1 = 0.5048	1087.33
318.14 K, x1 = 0.6047	1050.4
318.14 K, x1 = 0.7012	1012.64
318.14 K, x1 = 0.8024	962.44
318.14 K, x1 = 0.897	906.82
318.14 K, x1 = 0.9513	867.68
318.14 K, x1 = 1	785.46
318.15 K, x1 = 0.101	1194.8
318.15 K, x1 = 0.3008	1148.23
318.15 K, x1 = 0.4074	1119.06
323.14 K, x1 = 0.0792	1195.73
323.14 K, x1 = 0.2039	1168.79
323.14 K, x1 = 0.5048	1083.27
323.14 K, x1 = 0.6047	1046.09
323.14 K, x1 = 0.8024	959.29
323.14 K, x1 = 0.9513	862.54
323.14 K, x1 = 1	780.55
323.15 K, x1 = 0.101	1191.43
323.15 K, x1 = 0.3008	1144.59
323.15 K, x1 = 0.4074	1115.15
323.15 K, x1 = 0.7012	1008.39
323.15 K, x1 = 0.897	901.88
